# Test results reported in article PMC4069099, “Pharmacological Validation of an Inward-Rectifier Potassium (Kir) Channel as an Insecticide Target in the Yellow Fever Mosquito Aedes aegypti” (PLoS ONE, 2014).
# Legend:
# Assay type in all cases: cell-based
# [1] = target: T1, AeKir2B (Aedes aegypti, UniProt L0EQ40); assay: two-electrode voltage clamp in Xenopus oocytes, activation of inward current at […]
# T1 sequence (L0EQ40 1-489): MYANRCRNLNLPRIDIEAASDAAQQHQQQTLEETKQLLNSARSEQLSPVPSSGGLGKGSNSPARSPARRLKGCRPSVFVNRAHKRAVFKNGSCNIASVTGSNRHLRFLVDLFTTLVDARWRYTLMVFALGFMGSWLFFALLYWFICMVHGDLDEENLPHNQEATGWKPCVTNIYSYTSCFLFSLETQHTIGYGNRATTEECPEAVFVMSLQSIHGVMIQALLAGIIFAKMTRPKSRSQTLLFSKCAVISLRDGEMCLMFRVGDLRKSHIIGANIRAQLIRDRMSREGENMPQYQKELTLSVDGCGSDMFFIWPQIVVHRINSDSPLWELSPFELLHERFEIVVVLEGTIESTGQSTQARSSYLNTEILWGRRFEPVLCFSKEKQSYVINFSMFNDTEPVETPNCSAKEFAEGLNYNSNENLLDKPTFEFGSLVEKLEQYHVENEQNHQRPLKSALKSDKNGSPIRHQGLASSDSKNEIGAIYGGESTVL
# [2] = target: T2, AeKir1 (Aedes aegypti, UniProt L0EQS9); assay: two-electrode voltage clamp in Xenopus oocytes, inhibition of inward current at […]
# T2 sequence (L0EQS9 1-486): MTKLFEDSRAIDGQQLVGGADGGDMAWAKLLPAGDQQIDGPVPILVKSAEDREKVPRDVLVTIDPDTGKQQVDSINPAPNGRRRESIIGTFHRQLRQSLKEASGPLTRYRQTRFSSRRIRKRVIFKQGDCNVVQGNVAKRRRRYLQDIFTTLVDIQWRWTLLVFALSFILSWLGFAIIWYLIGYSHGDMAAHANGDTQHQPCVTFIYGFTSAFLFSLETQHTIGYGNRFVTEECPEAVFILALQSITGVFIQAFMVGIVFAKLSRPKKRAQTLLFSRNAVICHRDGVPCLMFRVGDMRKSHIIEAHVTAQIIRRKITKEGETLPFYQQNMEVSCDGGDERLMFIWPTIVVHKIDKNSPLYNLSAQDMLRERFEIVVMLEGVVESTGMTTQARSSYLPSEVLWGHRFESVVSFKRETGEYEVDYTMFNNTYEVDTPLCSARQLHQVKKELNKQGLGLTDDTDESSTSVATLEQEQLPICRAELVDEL
# [3] = target: T2, AeKir1; assay: Tl+-flux assay in T-REx-HEK293 cells expressing AeKir1; also two-electrode voltage clamp in Xenopus oocytes ([…], […] block)
Compound,% activation at 50 μM [1] [% activation at 50 µM],% inhibition at 50 μM [2],IC50 [3] [µM]
Cc1ccc(OCC(O)Cn2c(=N)n(Cc3ccccc3)c3ccccc32)cc1 (stereo not drawn) [VU573],> 50,~ 50,–
O=[N+]([O-])c1ccc(CN2CCOCCOCCN(Cc3ccc([N+](=O)[O-])cc3)CCOCC2)cc1 [VU590],–,–,5.6
